± gives the expanded uncertainty stated by the source.
Assay: xn = mol fraction of the nth substance listed
Details: 101 kPa, Liquid, Pycnometric method

C=CC(=O)OCC [ethyl propenoate] + CC#N
mass density [kg/m3]
Details | 293.15 K | 298.15 K | 303.15 K | 308.15 K | 313.15 K | 318.15 K
x2 = 0 | 921.76 ± 1 | 915.95 ± 1 | 910.14 ± 1 | 904.33 ± 1 | 898.52 ± 1 | 892.71 ± 1
x2 = 0.0611 | 918.24 ± 1 | 912.49 ± 1 | 906.74 ± 1 | 900.99 ± 1 | 895.24 ± 1 | 889.48 ± 1
x2 = 0.1197 | 914.45 ± 1 | 908.75 ± 1 | 903.05 ± 1 | 897.35 ± 1 | 891.64 ± 1 | 885.93 ± 1
x2 = 0.1852 | 909.73 ± 1 | 904.07 ± 1 | 898.4 ± 1 | 892.73 ± 1 | 887.06 ± 1 | 881.39 ± 1
x2 = 0.2385 | 905.48 ± 1 | 899.84 ± 1 | 894.2 ± 1 | 888.55 ± 1 | 882.9 ± 1 | 877.25 ± 1
x2 = 0.2966 | 900.45 ± 1 | 894.83 ± 1 | 889.21 ± 1 | 883.58 ± 1 | 877.95 ± 1 | 872.32 ± 1
x2 = 0.3675 | 893.69 ± 1 | 888.1 ± 1 | 882.5 ± 1 | 876.9 ± 1 | 871.3 ± 1 | 865.7 ± 1
x2 = 0.436 | 886.46 ± 1 | 880.89 ± 1 | 875.32 ± 1 | 869.75 ± 1 | 864.18 ± 1 | 858.61 ± 1
x2 = 0.4982 | 879.23 ± 1 | 873.69 ± 1 | 868.15 ± 1 | 862.61 ± 1 | 857.07 ± 1 | 851.53 ± 1
x2 = 0.5745 | 869.38 ± 1 | 863.88 ± 1 | 858.38 ± 1 | 852.88 ± 1 | 847.38 ± 1 | 841.87 ± 1
x2 = 0.6519 | 858.1 ± 1 | 852.64 ± 1 | 847.18 ± 1 | 841.72 ± 1 | 836.26 ± 1 | 830.8 ± 1
x2 = 0.725 | 846 ± 1 | 840.58 ± 1 | 835.16 ± 1 | 829.74 ± 1 | 824.32 ± 1 | 818.9 ± 1
x2 = 0.8185 | 828.05 ± 1 | 822.69 ± 1 | 817.33 ± 1 | 811.97 ± 1 | 806.6 ± 1 | 801.23 ± 1
x2 = 0.9145 | 805.92 ± 1 | 800.6 ± 1 | 795.28 ± 1 | 789.96 ± 1 | 784.63 ± 1 | 779.3 ± 1

C=CC(=O)OC [methyl propenoate] + CC#N
mass density [kg/m3]
Details | 293.15 K | 298.15 K | 303.15 K | 308.15 K | 313.15 K | 318.15 K
x2 = 0 | 953.51 ± 1 | 947.56 ± 1 | 941.61 ± 1 | 935.66 ± 1 | 929.71 ± 1 | 923.76 ± 1
x2 = 0.0591 | 948.65 ± 1 | 942.78 ± 1 | 936.9 ± 1 | 931.02 ± 1 | 925.14 ± 1 | 919.27 ± 1
x2 = 0.1171 | 943.34 ± 1 | 937.51 ± 1 | 931.68 ± 1 | 925.85 ± 1 | 920.01 ± 1 | 914.17 ± 1
x2 = 0.17 | 938.02 ± 1 | 932.22 ± 1 | 926.42 ± 1 | 920.62 ± 1 | 914.81 ± 1 | 909 ± 1
x2 = 0.2356 | 930.83 ± 1 | 925.06 ± 1 | 919.29 ± 1 | 913.52 ± 1 | 907.75 ± 1 | 901.97 ± 1
x2 = 0.2977 | 923.4 ± 1 | 917.66 ± 1 | 911.92 ± 1 | 906.18 ± 1 | 900.43 ± 1 | 894.68 ± 1
x2 = 0.3615 | 915.12 ± 1 | 909.41 ± 1 | 903.7 ± 1 | 897.99 ± 1 | 892.28 ± 1 | 886.56 ± 1
x2 = 0.4343 | 904.86 ± 1 | 899.19 ± 1 | 893.52 ± 1 | 887.85 ± 1 | 882.17 ± 1 | 876.49 ± 1
x2 = 0.5014 | 894.57 ± 1 | 888.94 ± 1 | 883.31 ± 1 | 877.67 ± 1 | 872.03 ± 1 | 866.39 ± 1
x2 = 0.5738 | 882.48 ± 1 | 876.9 ± 1 | 871.32 ± 1 | 865.73 ± 1 | 860.14 ± 1 | 854.55 ± 1
x2 = 0.6537 | 867.83 ± 1 | 862.31 ± 1 | 856.79 ± 1 | 851.26 ± 1 | 845.73 ± 1 | 840.2 ± 1
x2 = 0.7623 | 845.33 ± 1 | 839.89 ± 1 | 834.45 ± 1 | 829.01 ± 1 | 823.57 ± 1 | 818.13 ± 1
x2 = 0.8155 | 833.04 ± 1 | 827.65 ± 1 | 822.26 ± 1 | 816.87 ± 1 | 811.47 ± 1 | 806.07 ± 1
x2 = 0.9074 | 809.47 ± 1 | 804.14 ± 1 | 798.81 ± 1 | 793.47 ± 1 | 788.13 ± 1 | 782.79 ± 1

— the NIST ThermoML archive (doi:10.1016/j.jct.2016.08.026)
